Test results as given in PubChem BioAssay (NCI).
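Growth conditions: 96-well plates. Treatment: test compound, 48 hours, 5 concentrations. Analysis: linear interpolation between bracketing concentrations; unreached endpoints set to highest concentration. Abbreviation: GI50, concentration required for 50% inhibition of growth. TGI: concentration producing complete growth inhibition.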

Assays:
Assay in all cases: NCI tumour cell line growth inhibition, 48 h
[1] = tested on: NCI/ADR-RES ovarian
[2] = tested on: COLO 205 colon
[3] = tested on: 786-0 renal
[4] = tested on: MCF7 breast
[5] = tested on: DU-145 prostate
[6] = tested on: NCI-H522 lung
[7] = tested on: PC-3 prostate
[8] = tested on: HCC-2998 colon
[9] = tested on: HS 578T breast
[10] = tested on: LOX IMVI melanoma
[11] = tested on: CCRF-CEM leukemia
[12] = tested on: BT-549 breast

Compound | TGI [1] [µM] | TGI [2] [µM] | TGI [3] [µM] | TGI [4] [µM] | TGI [5] [µM] | TGI [6] [µM] | TGI [7] [µM] | TGI [8] [µM] | TGI [9] [µM] | TGI [10] [µM] | TGI [11] [µM] | TGI [12] [µM] | GI50 [1] [µM] | GI50 [10] [µM] | GI50 [2] [µM] | GI50 [11] [µM] | GI50 [4] [µM] | GI50 [6] [µM] | GI50 [8] [µM]
O=C(CSCC(=O)N/N=C/c1cccc(O)c1)N/N=C/c1cccc(O)c1 | > 100 | > 100 | > 100 | > 100 | > 100 | > 100 | > 100 | > 100 | > 100 | – | – | – | – | – | – | – | – | – | –
CCOC(=O)c1c2c(n(-c3ccc(C)cc3)c1C)-c1ccccc1C(=O)C2(C(=O)OCC)C(=O)OCC | > 85.3 | > 100 | > 100 | 76.6 | > 100 | 79.9 | > 100 | 69.9 | 86.5 | > 84.5 | > 100 | 55.2 | – | – | – | – | – | – | –
O=c1[nH]c2[nH]c(=S)[nH]c(=S)c2[nH]1 | > 100 | – | > 100 | – | – | > 100 | > 100 | > 100 | > 100 | > 100 | – | > 100 | – | – | – | – | – | – | –
CN1C(=O)CC(=O)N1/C(=C/c1ccccc1)c1ccccc1 | > 100 | > 100 | – | > 100 | > 100 | – | > 100 | > 100 | 88.1 | 31.2 | 54.3 | > 100 | – | – | – | – | – | – | –
COc1ccc2nc3cc(Cl)ccc3c(NC(C)CCCN(CCCl)CCCl)c2c1 (stereo not drawn) | – | 2.15 | 3.87 | – | – | 2.24 | – | 9.61 | – | 1.17 | 1.12 | – | – | – | – | – | – | – | –
CSCCC(C(=O)O)N(C)C (stereo not drawn) | > 100 | > 100 | > 100 | > 100 | > 100 | > 100 | > 100 | – | > 100 | > 100 | > 100 | > 100 | – | – | – | – | – | – | –
C=CCNC(=O)C(C)C1CCC2(C)C=CC(=O)C(C)=C2C1O (stereo not drawn) | > 100 | > 100 | – | > 100 | – | > 100 | – | > 100 | – | > 100 | > 100 | – | – | – | – | – | – | – | –
Oc1ccc(C(=C(Br)c2ccccc2)c2ccc(O)cc2)cc1 | 12.6 | – | – | 12.4 | 25.7 | 17.6 | 19.9 | 21.2 | 22 | 17 | 32.3 | 15.4 | – | – | – | – | – | – | –
C=C(C#N)C(=O)OCC(CC)CC.C=C(C#N)C(=O)OCC(CC)CC.CS(C)=O.CS(C)=O.Nc1c(N=Nc2ccc(-c3ccc(N=Nc4cc(S(=O)(=O)[O-])c5ccccc5c4N)cc3)cc2)cc(S(=O)(=O)[O-])c2ccccc12.[Pt+2] | 91.7 | 45.6 | – | > 100 | – | 19.3 | – | > 100 | – | > 84.9 | > 100 | – | 34 | 35 | 22.3 | 30.7 | 24.2 | 13.7 | 48.9
Cc1ccc(S(=O)(=O)OC2CC(C(C)(C)C)CCC2c2ccccc2)cc1 (stereo not drawn) | > 100 | > 100 | > 100 | > 100 | > 100 | – | > 100 | – | – | > 100 | – | > 100 | – | – | – | – | – | – | –
O=C1c2cc(O)c(O)cc2O[C@H](c2ccc(O)c(O)c2)[C@H]1O | > 100 | > 100 | > 100 | > 100 | > 100 | > 100 | > 100 | > 100 | > 100 | > 100 | > 100 | > 100 | – | – | – | – | – | – | –
O=C1c2ccccc2C(=O)c2[nH]cnc21 | – | – | > 100 | – | – | > 100 | – | > 100 | – | – | > 100 | – | – | – | – | – | – | – | –
CCN(CC)CCNc1ccc2ncn3c4ccc(O)cc4c(=O)c1c23 | 16.1 | 14.7 | 14.1 | 12.6 | 18.4 | 15.7 | 14.5 | 18.1 | 21 | 3.15 | 16.5 | 24.9 | – | – | – | – | – | – | –
